Laboratory results: patent US20240425478A1, “CYCLOPENTYLPYRAZOLE CDK2 INHIBITORS” (Genentech, Inc., priority 2021, published 2024)
pIC50, pKi: −log10 of the molar value. Where two headings read alike, the source gives them in different places.

How the values were obtained:
[1] = target: T1, Cyclin Dependent Kinase 4/Cyclin D3 (CDK4-cycD3) (Homo sapiens, UniProt P11802); experiment: CDK4-cycD3 TR-FRET (LANCE) enzyme assay; assay type: biochemical; details: for pKi: Table O, enzymatic assay; for FS CDK4/CDK2: fold selectivity, enzymatic Ki ratio
T1 construct: purchased Carna Biosciences 04-105
T1 sequence (P11802 whole entry): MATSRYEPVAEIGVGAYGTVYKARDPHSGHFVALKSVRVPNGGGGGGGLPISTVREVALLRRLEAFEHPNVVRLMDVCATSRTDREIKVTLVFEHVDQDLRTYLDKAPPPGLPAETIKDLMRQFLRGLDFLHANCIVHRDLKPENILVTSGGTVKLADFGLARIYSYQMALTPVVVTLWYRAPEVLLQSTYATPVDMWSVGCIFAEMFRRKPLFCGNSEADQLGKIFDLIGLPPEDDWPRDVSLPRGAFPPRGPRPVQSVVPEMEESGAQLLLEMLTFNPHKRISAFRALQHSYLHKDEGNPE
T1 sequence (P30281 whole entry partner): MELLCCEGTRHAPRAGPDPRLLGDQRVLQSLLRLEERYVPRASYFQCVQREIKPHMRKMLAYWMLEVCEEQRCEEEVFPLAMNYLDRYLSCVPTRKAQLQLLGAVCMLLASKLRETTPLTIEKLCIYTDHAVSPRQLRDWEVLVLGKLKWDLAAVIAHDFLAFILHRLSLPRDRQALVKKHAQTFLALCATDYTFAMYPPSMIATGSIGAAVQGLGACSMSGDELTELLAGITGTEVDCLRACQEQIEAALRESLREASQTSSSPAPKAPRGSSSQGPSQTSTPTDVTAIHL
Outline: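 Compound dose responses pre-incubated 30 min with enzyme mix in 50 mM HEPES pH 7.5, 10 mM MgCl2, 2 mM TCEP, 0.05% BGG, 0.01% Brij 35. Reaction quenched with EDTA (15 mM final); Eu-anti-phospho-4E-BP1 TR-FRET detection, acceptor/donor ratio. Ki derived by Morrison equation.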

[2] = tested on: HCT116 cells; experiment: p-H3 HCT-116 mitotic release cell proliferation assay (cellular CDK1); assay type: cell-based; details: Homo sapiens, HCT-116; Table O, cellular assay; read-out: CDK1 p-H3 IC50
Outline: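 HCT116 cells arrested 16 h with 500 nM nocodazole, then exposed to compound for 4 h at 37 °C (0.1% DMSO). Lysates read by HTRF/FRET with donor and acceptor phospho-Histone H3 (Ser10) antibodies, ≥2 h at room temperature; CDK1 inhibition seen as loss of p-H3 on mitotic release.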

[3] = target: T2, Cyclin Dependent Kinase 2/Cyclin E1 (CDK2-cycE1) (Homo sapiens, UniProt P24941); experiment: CDK2-cycE1 TR-FRET (LANCE) enzyme assay; assay type: biochemical; details: for FS CDK1/CDK2 / FS CDK4/CDK2: fold selectivity; for increased fold-selectivity CDK4/CDK2 over Comparator C: (+) sign after FS CDK4/CDK2;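 on improvement in potency against CDK2 (Ki) over Comparator C: fold lower CDK2 Ki than comparator c (Ki 0.032 µM)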
T2 construct: purchased ProQinase 0050-0055-1
Outline: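 Compound dose responses pre-incubated 30 min with CDK2-cycE1 in 50 mM HEPES pH 7.5, 10 mM MgCl2, 2 mM TCEP, 0.05% BGG, 0.01% Brij 35. Reaction quenched with EDTA (15 mM final), phospho-MBP detected by Eu-anti-phospho-MBP TR-FRET (acceptor/donor ratio). Inhibition constants from Morrison equation.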

[4] = tested on: OVISE (JCRB1043, CCNE1-amplified); experiment: OVISE EdU incorporation cell proliferation assay (CDK2-dependent); assay type: cell-based; details: for pIC50: cellular assay, read-out: CDK2 OVISE IC50; for FS SKOV-3/OVISE / FS p-H3/OVISE: fold selectivity; for FS p-H3/OVISE: cellular p-H3 IC50 over OVISE IC50; for increased fold-selectivity SKOV-3/OVISE over Comparator C: (+) sign after FS SKOV-3/OVISE; for improvement in CDK2 OVISE cell potency over Comparator C / CDK2 OVISE IC50 fold change in potency versus Comparator D / CDK2 OVISE IC50 fold change in potency versus Comparator E: in brackets after OVISE IC50; for improvement in CDK2 OVISE cell potency over Comparator C: Comparator C 5.5 μM; for CDK2 OVISE IC50 fold change in potency versus Comparator D: Table R; for CDK2 OVISE IC50 fold change in potency versus Comparator E: Table S
Outline: (§1)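 Cells in RPMI/10% FBS dosed with compound (0.5% DMSO final) for 16 h at 37 °C, 5% CO2, then EdU 0.5 μM final for 8 h before fixation and imaging. IC50 from 4-parameter logistic fit of EdU-positive cell fraction versus dose.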

[5] = tested on: SKOV-3 (ATCC HTB-77); experiment: SKOV-3 EdU incorporation cell proliferation assay (CDK4/6-dependent); assay type: cell-based; details: for pIC50: Homo sapiens, cellular assay, read-out: CDK4/6 SKOV-3 IC50; for FS SKOV-3/OVISE: fold selectivity, cellular IC50 ratio
Outline: as §1

[6] = target: T3, Cyclin Dependent Kinase 1/Cyclin A2 (CDK1-cycA2) (Homo sapiens, UniProt P06493); experiment: CDK1-cycA2 TR-FRET (Lance) enzyme assay; assay type: biochemical; details: for pKi: Table O, enzymatic assay; for FS CDK1/CDK2: fold selectivity, enzymatic Ki ratio
T3 construct: purchased ProQinase 0134-0054-1
T3 sequence (P06493 whole entry): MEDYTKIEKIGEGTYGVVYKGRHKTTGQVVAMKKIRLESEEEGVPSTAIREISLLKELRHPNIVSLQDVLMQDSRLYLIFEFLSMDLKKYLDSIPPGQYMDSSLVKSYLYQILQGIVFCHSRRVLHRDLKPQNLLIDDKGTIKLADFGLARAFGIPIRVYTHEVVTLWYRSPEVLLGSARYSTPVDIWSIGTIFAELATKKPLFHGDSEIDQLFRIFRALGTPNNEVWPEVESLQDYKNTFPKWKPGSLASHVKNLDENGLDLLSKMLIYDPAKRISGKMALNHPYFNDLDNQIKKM
T3 sequence (P20248 whole entry partner): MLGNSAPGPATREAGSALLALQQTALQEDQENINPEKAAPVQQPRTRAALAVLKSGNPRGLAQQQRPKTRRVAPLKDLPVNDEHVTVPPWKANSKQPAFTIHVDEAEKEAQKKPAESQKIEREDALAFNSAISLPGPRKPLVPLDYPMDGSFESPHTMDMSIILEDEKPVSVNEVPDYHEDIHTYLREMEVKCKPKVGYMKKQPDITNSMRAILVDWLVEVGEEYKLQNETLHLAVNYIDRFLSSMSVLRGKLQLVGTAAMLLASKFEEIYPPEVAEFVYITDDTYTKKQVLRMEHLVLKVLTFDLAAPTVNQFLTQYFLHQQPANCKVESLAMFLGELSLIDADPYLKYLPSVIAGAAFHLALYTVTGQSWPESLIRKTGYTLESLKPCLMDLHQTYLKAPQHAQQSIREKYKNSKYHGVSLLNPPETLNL
Outline: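 Human CDK1/cyclin A2 pre-incubated 30 min with compound dose responses in 50 mM HEPES pH 7.5, 10 mM MgCl2, 2 mM TCEP, 0.05% BGG, 0.01% Brij 35. Reaction quenched with EDTA (15 mM final); TR-FRET readout using Eu-anti-phospho-4E-BP1, acceptor/donor ratio. Inhibition constants from Morrison equation.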

[7] = Table O, enzymatic assay, read-out: CDK2 Ki
[8] = Table O, enzymatic CDK1 Ki over CDK2 Ki
[9] = Table O, enzymatic CDK4 Ki over CDK2 Ki
[10] = Table Q, enzymatic assay, read-out: CDK2 Ki
[11] = Table O, cellular SKOV-3 IC50 over OVISE IC50
[12] = Table R, enzymatic assay, read-out: CDK2 Ki
[13] = Table R, in brackets after CDK2 Ki
[14] = Table S, enzymatic assay, read-out: CDK2 Ki
[15] = Table S, in brackets after CDK2 Ki

Compound	pKi [1]	pIC50 [2]	pKi [3, 7]	FS CDK1/CDK2 [3, 8]	FS CDK4/CDK2 [3, 9]	increased fold-selectivity CDK4/CDK2 over Comparator C ([3]; Table Q)	pKi [3, 10]	FS CDK1/CDK2 ([3]; Table Q, enzymatic)	FS CDK4/CDK2 ([3]; Table Q, enzymatic)	pIC50 ([4]; Table O)	FS SKOV-3/OVISE [4, 11]	FS p-H3/OVISE ([4]; Table O)	increased fold-selectivity SKOV-3/OVISE over Comparator C ([4]; Table Q)	FS SKOV-3/OVISE ([4]; Table Q, cellular)	improvement in CDK2 OVISE cell potency over Comparator C ([4]; Table Q)	pIC50 ([5]; SK-OV-3, Table O)	pIC50 ([5]; SK-OV-3, Table Q)	pKi [6]	FS CDK4/CDK2 increased over Comparator D, (+) sign ([1]; Table R)	FS CDK4/CDK2 ([1]; Table R)	other results
Cc1cncc(Nc2cc([C@H]3CC[C@@H](OC(=O)NC(C)C)C3)[nH]n2)n1 [Example 2M, (1R,3S)-3-(3-((6-methylpyrazin-2-y1)amino)-1H-pyrazol-5-yl)cyclopentyl isopropylcarbamate]	7.55	8.15	9.59	24	110	(+) (The (+) sign in Table Q signifies desirable increased fold-selectivity of the exemplary compounds over Comparator C)	9.59	24	110	7.70	29	0.35	(+) (The (+) sign in Table Q signifies desirable increased fold-selectivity of the exemplary compounds over Comparator C)	29	275 fold	6.24	6.24	8.20			improvement in potency against CDK2 (Ki) over Comparator C [3]: 123 fold
Cc1ccc(Nc2cc([C@H]3CC[C@@H](OC(=O)NC(C)(C)C)C3)[nH]n2)cn1 [Example 4B, (1R,3S)-3-(3-((6-methylpyridin-3-yl)amino)-1H-pyrazol-5-yl)cyclopentyl tert-butylcarbamate]	7.72	7.64	9.28	38	37					7.48	12	0.70				6.41		7.70	(+)	37	FS CDK4/CDK2 ([1]; Table S): 37; pKi [3, 12]: 9.28; CDK2 Ki fold change in potency versus Comparator D [3, 13]: 5.2 fold; pKi [3, 14]: 9.28; CDK2 Ki fold change in potency versus Comparator E [3, 15]: 1 fold; pKi ([3]; read-out: CDK2 activity / potency (enzymatic assay)): ≥ 9.00; CDK2 OVISE IC50 fold change in potency versus Comparator D [4]: 115 fold; CDK2 OVISE IC50 fold change in potency versus Comparator E [4]: 5.2 fold; FS SKOV-3/OVISE increased over Comparator D, (+) sign ([5]; Table R): (+); FS SKOV-3/OVISE ([5]; Table R): 12; FS SKOV-3/OVISE ([5]; Table S): 12; FS CDK1/CDK2 increased over Comparator D, (+) sign ([6]; Table R): (+); FS CDK1/CDK2 ([6]; Table R): 38; FS CDK1/CDK2 ([6]; Table S): 38
Cn1nc(Nc2cc([C@H]3CC[C@@H](OC(=O)NC(C)(C)C)C3)[nH]n2)ccc1=O [Example 6C, (1R,3S)-3-(3-((1-methyl-6-oxo-1,6-dihydropyridazin-3-yl)amino)-1H-pyrazol-5-yl)cyclopentyl tert-butylcarbamate]	7.35	7.59	> 10.00	>47	>584					7.52	50	0.087				5.82		8.44	(+)	> 584	FS CDK4/CDK2 increased over Comparator E, (+) sign ([1]; Table S): (+); FS CDK4/CDK2 ([1]; Table S): > 584; pKi [3, 12]: > 10.00; CDK2 Ki fold change in potency versus Comparator D [3, 13]: 27 fold; pKi [3, 14]: > 10.00; CDK2 Ki fold change in potency versus Comparator E [3, 15]: 5.2 fold; CDK2 cell potency compared with Comparator E ([4]; CDK2 OVISE cellular assay data): more potent CDK2 cell inhibitors compared to Comparator E; CDK2 OVISE IC50 fold change in potency versus Comparator D [4]: 127 fold; CDK2 OVISE IC50 fold change in potency versus Comparator E [4]: 5.7 fold; selectivity for CDK2 over CDK4 compared with Comparator E ([5]; SKOV-3/OVISE fold-selectivity cellular assay data): increase in selectivity for CDK2 over CDK4; FS SKOV-3/OVISE increased over Comparator D, (+) sign ([5]; Table R): (+); FS SKOV-3/OVISE ([5]; Table R): 50; FS SKOV-3/OVISE increased over Comparator E, (+) sign ([5]; Table S): (+); FS SKOV-3/OVISE ([5]; Table S): 50; FS CDK1/CDK2 increased over Comparator D, (+) sign ([6]; Table R): (+); FS CDK1/CDK2 ([6]; Table R): > 47; FS CDK1/CDK2 increased over Comparator E, (+) sign ([6]; Table S): (+); FS CDK1/CDK2 ([6]; Table S): > 47
Cc1nc(C#N)ccc1Nc1cc([C@H]2CC[C@@H](OC(=O)NC(C)C)C2)[nH]n1 [Example 2Z, (1R,3S)-3-(3-((6-cyano-2-methylpyridin-3-yl)amino)-1H-pyrazol-5-yl)cyclopentyl isopropylcarbamate]	5.89	6.39	8.30	110	260	(+) (The (+) sign in Table Q signifies desirable increased fold-selectivity of the exemplary compounds over Comparator C)	8.30	110	260	6.60	72	1.6	(+) (The (+) sign in Table Q signifies desirable increased fold-selectivity of the exemplary compounds over Comparator C)	72	22 fold	4.74	4.74	6.26			increased fold-selectivity CDK1/CDK2 over Comparator C ([3]; Table Q, (+) sign after FS CDK1/CDK2): (+) (The (+) sign in Table Q signifies desirable increased fold-selectivity of the exemplary compounds over Comparator C); improvement in potency against CDK2 (Ki) over Comparator C ([3]; Table Q, in brackets after CDK2 Ki, Comparator C 0.032 μM): 6.4 fold
